Assay results: US5164411A, “Pyrethroid compositions” (priority 1991, dated 1992)
In brackets after ≈: the same amount, converted by molar mass.

How the values were obtained:
[1] = system: tobacco budworm strain resistant to pyrethroids; assay: Foliar evaluation, pyrethroid-resistant tobacco budworm (TBW-R); format: in vivo, Heliothis virescens; conditions: for LC50: Heliothis virescens, foliar, pinto beans, mortality at 48 hours
Procedure: (§1) Cypermethrin and sigma-cypermethrin were tested by foliar application at various concentrations in aqueous solutions containing 9.75% acetone and 0.25% octylphenoxypolyethoxyethanol. Insect species utilized included the cabbage looper (Trichoplusia ni), southern armyworm (Spodoptera eridania), Mexican bean beetle (Epilachna varivestis), tobacco budworm (Heliothis virescens), and corn earworm (Heliothis zea).
(§2) For all insects, pinto beans (Phaseolus vulgaris) plants were treated with the test solutions. The test solutions were applied with a sprayer to the upper and lower surfaces of the plant leaves to runoff. The plants were then allowed to dry and were severed at the base of the stem before being placed in cups. Ten second instar individuals of the appropriate insect species, except the tobacco budworm and corn earworm, were placed in each cup and the cup covered. Tests with the tobacco budworm and corn earworm used four replicates with each replicate containing five second instar insects. In all tests, mortality was read 48 hours later. The sigma-cypermethrin used in the foliar evaluations was the product of Example 2.

rats = assay: Multigeneration study; format: in vivo
Procedure: Multigeneration studies were conducted in compliance with EPA guideline 83-4 and provide information on reproductive parameters as well as neonatal morbidity and mortality for multiple generations. Wistar rats were fed diets, throughout the study, containing 0, 50, 150, and 750 ppm of cypermethrin (the top dose level was 1000 ppm for the first 12 weeks, but was lowered to 750 ppm for the remainder of the study owing to toxicity). Similarly, Sprague-Dawley rats were fed diets containing 0, 7.5, 25, 100, 375, and 750 ppm of sigma-cypermethrin. (Again, the rates are lower for sigma-cypermethrin, because it was expected to be more toxic.) The cypermethrin isomer content (weight %) of the sigma-cypermethrin technical product used in this study was total isomers--89.1%, S-isomers--82%, cis/trans ratio--51/49. […] Body weights and food consumption were recorded at regular intervals.
The breeding of parental and subsequent generations in each study was initiated with 30 females. In both studies appropriate dietary concentrations of test material were provided during cohabitation. Exposure of the parental males of each generation continued until a scheduled sacrifice following completion of the cohabitation periods, while exposure of parental females continued through to weaning of pups. Pups were weaned at postnatal day 28 in both studies.

[2] = system: southern armyworm (Spodoptera eridania); assay: Foliar evaluation, southern armyworm (SAW); format: in vivo; conditions: for LC50: Spodoptera eridania, foliar, pinto beans, mortality at 48 hours
Procedure: as §1, §2

[3] = system: alfalfa weevil (Hypera postica); assay: Field trials, control of alfalfa weevil; format: in vivo
Procedure: Field trials were conducted in Louisiana, North Carolina, Texas, Kentucky, Tennessee, and Illinois to evaluate the control of alfalfa weevil (Hypera postica). Small plot trials were used in a randomized block design with four replications per treatment. Applications were made with CO2 backpack sprayers. Results were obtained at 3, 7, and 14 days after treatment (DAT) and were converted to percent control based on the untreated check.

[4] = Ninety-six-hour flow-through acute toxicity, sheepshead minnow; format: in vivo, Cyprinodon variagatus; conditions: 96 h flow-through, filtered seawater
Procedure: Ninety-six-hour flow-through acute toxicity studies of both cypermethrin and sigma-cypermethrin were conducted in the rainbow trout (Oncorhynchus mykiss) and in the sheepshead minnow (Cyprinodon variagatus) to determine the median-lethal-concentration (LC50) resulting from continuous exposure. For the rainbow trout the exposure medium was well water; for the sheepshead minnow, filtered seawater. Each group of 20 fish (10 per replicate aquarium) was exposed either to one of five concentrations of pyrethroid delivered in a diluter system in dimethylformamide (DMF), to 30 μL/L DMF in the exposure medium (solvent control), or to the exposure medium alone (control). Observations for mortality, morbidity, and other overt signs of toxicity were determined at prescribed intervals. Concentrations of the test materials were measured at the beginning and end of the exposure using a validated HPLC method. The cypermethrin isomer content (weight %) of the sigma-cypermethrin technical product used in this study was total isomers--88.2%, S-isomers--82%, cis/trans ratio--53/47.

[5] = system: female Sprague-Dawley rats; assay: Teratology; format: in vivo, Sprague-Dawley rat; conditions: for embryotoxic or teratogenic effect: at any dose
Procedure: These tests were conducted in compliance with EPA guideline 83-3 for the purpose of determining the effects of the test materials on pregnancy and in utero development. The test materials were administered via gavage in corn oil once daily to female Sprague-Dawley rats on days 6 through 15 of presumed gestation. There were 25 animals per dose group. Dosages of 0, 17.5, 37.5, and 75 mg/kg for cypermethrin and 0, 5, 12.5, 25, and 35 mg/kg for sigma-cypermethrin were administered. The cypermethrin isomer content (weight %) of the sigma-cypermethrin technical product used in this study was total isomers--89.1%, S-isomers--82%, cis/trans ratio--51/49. The control animals (0 mg/kg) received corn oil during the treatment period. All dosages were adjusted daily on the basis of body weights.
Daily observations of the rats were made during the dosage and postdosage periods. On gestation day 20 to 21 the rats were sacrificed for examination of their uterine contents, including the number of live and dead fetuses and the number of resorptions. Fetuses were subsequently examined for malformations.

cabbage looper = assay: Field trials on lettuce, control of cabbage looper; format: in vivo, Trichoplusia ni
From the text: Field trials conducted on lettuce in California for evaluation of the control of cabbage looper consisted of a randomized complete block design of four replications per treatment. Applications were made to small plots with CO2 backpack sprayer using a minimum of 10 gallons per acre. Results were converted to percent control based on untreated check plots.

Heliothis sp. = assay: Field trials on cotton, control of Heliothis sp.; format: in vivo, Heliothis virescens and Heliothis zea; conditions: for Yield: seed cotton per acre
From the text: Plots were a minimum of 0.2 acres, and all applications were by commercial ground equipment with a minimum of 10 gallons total spray solution per acre. The cypermethrin isomer content (weight %) of the several sigma-cypermethrin technical products used in the field trials were as follows:
Analysis of the data was based on a seasonal average of multiple evaluations taken over a four to six week period (3-4 applications) in trials for control of Heliothis sp.

[6] = Year 1, 0.022 lb ai/A, seasonal mean of 3 trials (MS, LA)
[7] = Year 1, 0.03 lb ai/A, seasonal mean of 3 trials (MS, LA)
[8] = Year 2, 0.026 lb ai/A, seasonal mean of 4 trials (MS, LA)
[9] = Year 3, 0.013 lb ai/A, seasonal mean of 6-8 trials (MS, LA, AL, GA)
[10] = Year 3, 0.026 lb ai/A, seasonal mean of 6-8 trials (MS, LA, AL, GA)
[11] = Year 3, 0.039 lb ai/A, seasonal mean of 6-8 trials (MS, LA, AL, GA)
[12] = Year 1, 0.06 lb ai/A, seasonal mean of 3 trials (MS, LA)
[13] = Year 2, 0.06 lb ai/A, seasonal mean of 4 trials (MS, LA)
[14] = Year 3, 0.06 lb ai/A, seasonal mean of 6-8 trials (MS, LA, AL, GA)

CC1(C)C(C=C(Cl)Cl)C1C(=O)O[C@H](C#N)c1cccc(Oc2ccccc2)c1 (mixture of isomers) [sigma-cypermethrin, (S)(cyano)(3-phenoxyphenyl)methyl cis/trans-3-(2,2-dichloroethenyl)-2,2-dimethylcyclopropanecarboxylate]
LC50 [1]: 43 µg/mL
Relative Potency ([1]; vs cypermethrin, TBW-R): 2.1
mortality of F1 generation litters (rats; 750 ppm in diet, 28-day lactation and first week postweaning): excessive mortality
NOEL relative to that of cypermethrin (rats; multigeneration): twice that of cypermethrin
amount required to show an effect on rats relative to that expected from effect on insects (rats; multigeneration): four times
LC50 [2]: 1.8 µg/mL
Relative Potency ([2]; vs cypermethrin, SAW): 2.3
% Alfalfa Weevil Control ([3]; Year 1, 0.022 lb ai/A, 3 DAT, average of 4 trials): 96%
% Alfalfa Weevil Control ([3]; Year 1, 0.022 lb ai/A, 7 DAT, average of 4 trials): 94%
% Alfalfa Weevil Control ([3]; Year 1, 0.022 lb ai/A, 14 DAT, average of 4 trials): 96%
% Alfalfa Weevil Control ([3]; Year 2, 0.01 lb ai/A, 3 DAT, average of 6 trials): 93%
% Alfalfa Weevil Control ([3]; Year 2, 0.01 lb ai/A, 7 DAT, average of 6 trials): 93%
% Alfalfa Weevil Control ([3]; Year 2, 0.01 lb ai/A, 14 DAT, average of 6 trials): 85%
% Alfalfa Weevil Control ([3]; Year 2, 0.015 lb ai/A, 3 DAT, average of 6 trials): 94%
% Alfalfa Weevil Control ([3]; Year 2, 0.015 lb ai/A, 7 DAT, average of 6 trials): 97%
% Alfalfa Weevil Control ([3]; Year 2, 0.015 lb ai/A, 14 DAT, average of 6 trials): 94%
% Alfalfa Weevil Control ([3]; Year 2, 0.022 lb ai/A, 3 DAT, average of 6 trials): 94%
% Alfalfa Weevil Control ([3]; Year 2, 0.022 lb ai/A, 7 DAT, average of 6 trials): 96%
% Alfalfa Weevil Control ([3]; Year 2, 0.022 lb ai/A, 14 DAT, average of 6 trials): 94%
LC50 at 96 h [4]: 2.37 ng/mL
embryotoxic or teratogenic effect [5]: no embryotoxic or teratogenic effect
amount required to show an effect on rats relative to that expected from effect on insects ([5]; teratology): 1.4 times
% Cabbage Looper Control (cabbage looper; Year 1, 0.026 lb ai/A, 3 DAT, average of 2 trials (CA)): 83%
% Cabbage Looper Control (cabbage looper; Year 1, 0.026 lb ai/A, 7 DAT, average of 2 trials (CA)): 90%
% Cabbage Looper Control (cabbage looper; Year 2, 0.013 lb ai/A, 3 DAT, 1 trial (CA)): 98%
% Cabbage Looper Control (cabbage looper; Year 2, 0.013 lb ai/A, 7 DAT, 1 trial (CA)): 71%
% Cabbage Looper Control (cabbage looper; Year 2, 0.026 lb ai/A, 3 DAT, 1 trial (CA)): 98%
% Cabbage Looper Control (cabbage looper; Year 2, 0.026 lb ai/A, 7 DAT, 1 trial (CA)): 91%
% Cabbage Looper Control (cabbage looper; Year 2, 0.039 lb ai/A, 3 DAT, 1 trial (CA)): 100%
% Cabbage Looper Control (cabbage looper; Year 2, 0.039 lb ai/A, 7 DAT, 1 trial (CA)): 98%
% Hel. Live Larv. (Heliothis sp.; [6]): 10%
% Hel. Sq. Dam. (Heliothis sp.; [6]): 9%
Yield (Heliothis sp.; Year 1, 0.022 lb ai/A, 3 trials (MS, LA)): 2828 lb SC/A
% Hel. Live Larv. (Heliothis sp.; [7]): 8%
% Hel. Sq. Dam. (Heliothis sp.; [7]): 9%
Yield (Heliothis sp.; Year 1, 0.03 lb ai/A, 3 trials (MS, LA)): 2795 lb SC/A
% Hel. Live Larv. (Heliothis sp.; [8]): 3%
% Hel. Sq. Dam. (Heliothis sp.; [8]): 3%
% Hel. Live Larv. (Heliothis sp.; [9]): 6%
% Hel. Sq. Dam. (Heliothis sp.; [9]): 3%
Yield (Heliothis sp.; Year 3, 0.013 lb ai/A, 6-8 trials): 2818 lb SC/A
% Hel. Live Larv. (Heliothis sp.; [10]): 5%
% Hel. Sq. Dam. (Heliothis sp.; [10]): 4%
Yield (Heliothis sp.; Year 3, 0.026 lb ai/A, 6-8 trials): 2778 lb SC/A
% Hel. Live Larv. (Heliothis sp.; [11]): 5%
% Hel. Sq. Dam. (Heliothis sp.; [11]): 3%
Yield (Heliothis sp.; Year 3, 0.039 lb ai/A, 6-8 trials): 2692 lb SC/A

CC1(C)C(C=C(Cl)Cl)C1C(=O)OC(C#N)c1cccc(Oc2ccccc2)c1 (centres unmarked) [cypermethrin, (cyano)(3-phenoxyphenyl)methyl 3-(2,2-dichloroethenyl)-2,2-dimethylcyclopropanecarboxylate, reference compound]
LC50 [1]: 92 µg/mL (≈ 221 µM)
toxicity at top dose level (rats; 1000 ppm in diet, first 12 weeks, lowered to 750 ppm): toxicity
NOEL (rats; in diet, multiple generations): 50 ppm
LC50 [2]: 4.2 µg/mL (≈ 10.1 µM)
% Alfalfa Weevil Control ([3]; Year 2, 0.04 lb ai/A, 3 DAT, average of 6 trials): 94%
% Alfalfa Weevil Control ([3]; Year 2, 0.04 lb ai/A, 7 DAT, average of 6 trials): 96%
% Alfalfa Weevil Control ([3]; Year 2, 0.04 lb ai/A, 14 DAT, average of 6 trials): 90%
LC50 at 96 h [4]: 3.88 ng/mL (≈ 0.00932 µM)
embryotoxic or teratogenic effect [5]: no embryotoxic or teratogenic effect
% Cabbage Looper Control (cabbage looper; Year 1, 0.06 lb ai/A, 3 DAT, average of 2 trials (CA)): 61%
% Cabbage Looper Control (cabbage looper; Year 1, 0.06 lb ai/A, 7 DAT, average of 2 trials (CA)): 78%
% Cabbage Looper Control (cabbage looper; Year 2, 0.06 lb ai/A, 3 DAT, 1 trial (CA)): 94%
% Cabbage Looper Control (cabbage looper; Year 2, 0.06 lb ai/A, 7 DAT, 1 trial (CA)): 81%
% Hel. Live Larv. (Heliothis sp.; [12]): 9%
% Hel. Sq. Dam. (Heliothis sp.; [12]): 9%
Yield (Heliothis sp.; Year 1, 0.06 lb ai/A, 3 trials (MS, LA)): 2641 lb SC/A
% Hel. Live Larv. (Heliothis sp.; [13]): 2%
% Hel. Sq. Dam. (Heliothis sp.; [13]): 3%
% Hel. Live Larv. (Heliothis sp.; [14]): 4%
% Hel. Sq. Dam. (Heliothis sp.; [14]): 3%
Yield (Heliothis sp.; Year 3, 0.06 lb ai/A, 6-8 trials): 2675 lb SC/A
